Where “and” joins values, the source holds several entries; their conditions need not be identical. Equal values may be shown once.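 Each compound was tested at five concentrations against cells in 96-well plates for 48 hours. GI50 = concentration required for 50% inhibition of growth. TGI: total growth inhibition.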
How the values were obtained:
Assay in all cases: DTP human tumour cell line panel, 48 h
SK-OV-3 ovarian = test system: SK-OV-3 ovarian
PC-3 prostate = test system: PC-3 prostate
SNB-75 CNS = test system: SNB-75 CNS
HCT-15 colon = test system: HCT-15 colon
LOX IMVI melanoma = test system: LOX IMVI melanoma
SF-539 CNS = test system: SF-539 CNS
M14 melanoma = test system: M14 melanoma
MDA-MB-435 = test system: MDA-MB-435
HCC-2998 colon = test system: HCC-2998 colon
K-562 leukemia = test system: K-562 leukemia

| Structure (SMILES) | GI50 (SK-OV-3 ovarian) [µM] | TGI (SK-OV-3 ovarian) | GI50 (PC-3 prostate) [µM] | TGI (PC-3 prostate) [µM] | GI50 (SNB-75 CNS) [µM] | TGI (SNB-75 CNS) [µM] | GI50 (HCT-15 colon) [µM] | TGI (HCT-15 colon) | GI50 (LOX IMVI melanoma) [µM] | TGI (LOX IMVI melanoma) | GI50 (SF-539 CNS) [µM] | TGI (SF-539 CNS) | GI50 (M14 melanoma) [µM] | TGI (M14 melanoma) | GI50 (MDA-MB-435) [µM] | TGI (MDA-MB-435) [µM] | GI50 (HCC-2998 colon) [µM] | TGI (HCC-2998 colon) | GI50 (K-562 leukemia) [µM] | TGI (K-562 leukemia) |
| --- | --- | --- | --- | --- | --- | --- | --- | --- | --- | --- | --- | --- | --- | --- | --- | --- | --- | --- | --- | --- |
| CCOC(=O)N1CCN(/[N+]([O-])=N/Oc2ccc([N+](=O)[O-])cc2[N+](=O)[O-])CC1 | 5.61 | 18.4 µM | 3.48 | 16.7 | 4.92 | 18.8 | 0.346 | 1.46 µM | 0.258 | > 100 µM | 0.424 | 20.9 µM | 0.328 | 1.43 µM | 0.315 | 2.98 | 1.12 | 2.33 µM | 0.153 | 3.72 µM |
| C=C(C)C(O)CCC1(C)C=Cc2c(c(C)cc3c2[nH]c2ccccc23)O1 (stereo not given) | 11 | 25 µM and 22.9 µM |  | 19.3 |  | 9.8 | 1.93 | 8.23 µM and 4.71 µM | 3.12 | 8.4 µM and 12.2 µM | 3.64 | 9.45 µM and 13.2 µM | 6.63 | 10.9 µM and 19.7 µM |  | 21.3 | 2.19 | 12.1 µM and 5 µM | 2.78 | 24.6 µM and 7.13 µM |
| CCN(Cc1ccc(Cl)cc1)c1ccc(CO)c(Cl)c1 | 2.6 | 12.9 µM | 11.5 | 27.7 | 3.4 | 17.6 | 3.52 | 19.8 µM | 3.36 | 15.3 µM | 11.9 | 26.7 µM | 4.43 | 20.2 µM | 11 | 24.5 | 7.7 | 21.9 µM | 1.87 | > 45.5 µM |
| C[C@]12CC[C@@H]3c4ccc(OC(=O)N(CCCl)CCCl)cc4CC[C@H]3[C@@H]1CC[C@@H]2O | 4.71 | 36.8 µM and 7.95 µM | 3.02 | > 40.2 | 2.48 | 15.1 | 0.875 |  | 2.43 | 14.3 µM | 1.69 | 4.27 µM | 1.61 | 11.5 µM | 0.354 | 6.15 | 1.56 | 5.16 µM |  | > 47.5 µM |
| O=C1C(Cl)=C(Nc2cccc(Cl)c2)C(=O)N1Cc1ccc(Cl)cc1 | 6.34 | 24.6 µM | 1.32 | 11.9 | 1.48 | 14.6 | 0.43 | 13 µM | 0.408 | 8.49 µM | 0.196 | 2.37 µM | 2.11 | 9.94 µM | 0.396 | 2.91 | 1.16 | 4.72 µM | 0.858 | > 94.1 µM |
| CCN1C(=O)N(CC)C2C1NN=c1s/c(=C\c3cccc(F)c3)c(=O)n12 (stereo not given) | 2.59 | > 100 µM | 0.185 | > 100 | 0.0745 | > 100 | 0.0549 | > 100 µM | 0.11 | > 100 µM | 0.0804 | 1.05 µM | 0.0727 | > 100 µM | 0.0271 | 0.0833 | 0.223 | > 65.6 µM | 0.041 | > 100 µM |
| N#Cc1ccc(OCc2nc(N)nc(N)c2-c2ccc(Cl)c(Cl)c2)cc1 | 4.72 | > 100 µM | 0.613 | > 100 | 2.74 | 29.1 | 0.525 | > 100 µM | 0.424 | > 100 µM | 0.802 | 37.5 µM | 0.741 | > 100 µM | 0.629 | > 100 | 3.19 | > 100 µM | 0.359 | > 100 µM |
| CC(C)Cn1cnc2c(SCc3ccc(Cl)cc3Cl)nc(N)nc21 |  | > 100 µM |  | > 100 |  | > 100 |  | > 100 µM |  | 38.3 µM |  | 36.5 µM |  | > 100 µM |  | > 100 |  | 37.4 µM |  | > 100 µM |
| CCOc1cccc(/C=N/N=C2\C(=O)Nc3c(Cl)cc(Cl)cc32)c1O |  | > 100 µM |  | > 100 |  | 89.6 |  | > 100 µM |  | > 100 µM |  | > 100 µM |  | > 100 µM |  | > 100 |  | > 100 µM |  | > 100 µM |
| C[C@@]1(C(=O)O)CCC[C@]2(C)C1CC[C@@]13CC(=O)[C@@](CO)(CC[C@]12O)C3 (stereo not given in full) | 21.3 | > 100 µM | > 100 | > 100 | > 100 | > 100 | > 100 | > 100 µM | > 100 | > 100 µM | > 100 | > 100 µM | > 100 | > 100 µM | > 100 | > 100 | 50.7 | > 100 µM | > 100 | > 100 µM |
| O=C(O)CN(CC(=O)O)Cc1cc(C#Cc2ccc(C#Cc3ccccc3)cc2)cc(CN(CC(=O)O)CC(=O)O)n1 |  | > 100 µM |  | 60.9 |  | > 100 |  | > 59.6 µM |  | 45.8 µM |  | 59.3 µM |  | > 76.6 µM |  | > 100 |  | > 72.4 µM |  | > 67.5 µM |
| COc1ncnc2c(-c3ccccc3)cn(COCc3ccccc3)c12 | 7.69 | > 100 µM | 2.72 | > 100 | 4.03 | > 100 | 2.48 | > 100 µM | 3.27 | 14.7 µM | 11.8 | > 100 µM | 2.66 | 7.07 µM | 2 | 6.13 | 4.01 | > 100 µM | 3.32 | > 100 µM |
| Oc1c(-c2nnc(-c3ccccc3Cl)o2)sc2nnc(-c3ccccc3)c(-c3ccccc3)c12 | 5.14 | > 100 µM | 3.15 | > 100 | 6.94 | > 100 | 0.813 | > 100 µM | 2.55 | 21.8 µM | 4.45 | 70.4 µM | 5 | 39.3 µM | 4.26 | > 100 | 5.05 | > 100 µM | 3.28 | > 100 µM |

From PubChem BioAssay (NCI)
